From patent US11434242B2, “Dopamine-b-hydroxylase inhibitors” (BIAL-PORTELA & Cª, S.A., priority 2017, dated 2022) come the findings set out here.

The target of this experiment is T1, Dopamine beta hydroxylase (Homo sapiens, UniProt P09172).
T1 construct: 125 μl of plasma; tissue Instituto Português do Sangue Transplantação; host or cells: human plasma from healthy donors
T1 sequence (P09172 40-617 limits assumed): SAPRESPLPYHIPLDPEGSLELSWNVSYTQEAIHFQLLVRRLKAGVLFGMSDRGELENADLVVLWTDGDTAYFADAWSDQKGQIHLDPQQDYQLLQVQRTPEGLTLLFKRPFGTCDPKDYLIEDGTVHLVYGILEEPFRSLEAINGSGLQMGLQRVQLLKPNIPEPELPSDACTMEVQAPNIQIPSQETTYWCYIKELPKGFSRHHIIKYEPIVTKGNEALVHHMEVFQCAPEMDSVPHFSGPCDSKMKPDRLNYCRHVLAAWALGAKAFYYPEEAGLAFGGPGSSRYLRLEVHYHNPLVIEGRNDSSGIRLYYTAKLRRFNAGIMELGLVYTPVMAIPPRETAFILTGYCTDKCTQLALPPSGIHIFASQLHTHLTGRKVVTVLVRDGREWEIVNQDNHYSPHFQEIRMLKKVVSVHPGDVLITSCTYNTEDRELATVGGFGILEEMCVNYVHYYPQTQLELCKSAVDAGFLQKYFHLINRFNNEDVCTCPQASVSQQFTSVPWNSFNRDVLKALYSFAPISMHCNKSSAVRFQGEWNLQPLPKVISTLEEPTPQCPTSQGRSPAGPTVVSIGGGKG
Nature of the experiment: Dopamine beta hydroxylase activity in human plasma. Type of experiment: biochemical. Conditions: for Plasma (0.1 μM), activity in % of control: inhibitor 0.1 μM; for Plasma (1 μM), activity in % of control: inhibitor 1 μM; for Plasma (0.01 μM), activity in % of control: inhibitor 0.01 μM. Here is the method:
Furthermore, the ability of a compound to inhibit DβH activity may be assessed in human plasma using the following assay. […]. Dopamine beta hydroxylase activity in human plasma was measured by the method of Nagatsu and Udenfriend (Nagatsu, T. and Udenfriend, S. “Photometric assay of dopamine-μ-hydroxylase activity in human blood.” Clin. Chem. 18(9) 980-983, 1972) with minor modifications. Catalase, N-ethylmaleimide, tyramine, disodium fumarate, pargyline, sodium acetate, ascorbic acid, copper sulfate and octopamine were obtained from Sigma Chemical Co., St. Louis, Mo. 63178. Human plasma samples were obtained from healthy donors (Instituto Português do Sangue Transplantação, Centro Sangue Transplantação, Porto, Portugal). From date of collection, plasma was stored at −80° C. until use. Test compounds were initially prepared in dimethyl sulfoxide at a concentration of 10 mM and diluted in dimethyl sulfoxide to the required concentrations. Test compounds were further diluted in ultrapure water to a concentration 20-fold to that of the final concentration to be tested. Final concentrations of test compounds were 10, 100 and 1000 nM. The various reagents used to make up the incubation buffer were premixed and consisted of the following components: sodium acetate buffer (1 M, pH 5.0, 18 ml), sodium fumarate (0.2 M, 4.5 ml), ascorbic acid (0.2 M, 4.5 ml, freshly prepared), pargyline (20 mM, freshly prepared, 4.5 ml), N-ethylmaleimide (0.2 M, 4.5 ml), catalase (10 000 U/ml, 9 ml), copper sulfate (20 μM, 4.5 ml) and 4.5 ultrapure water. The standard incubation mixture (total volume, 950 μl) contained: 50 μL of compound or vehicle (dimethyl sulfoxide 2%); 700 μL of incubation buffer; 125 μl of plasma (or saline for blank reaction or standard curve); 75 μl of saline. The reaction mixture was placed in water bath, shaking at 37° C. and pre-incubated for 10 minutes. Tyramine (0.5 M) was added and incubation proceeded for 45 minutes. The reaction contents were exposed to air. A sample of enzyme preparation (with 125 μl of plasma) that had been added perchloric acid 2 M at the end of the pre-incubation period was used as blank. A blank for each of the tested compounds was used. For octopamine standard curve, perchloric acid 2 M was replaced by increasing concentrations of octopamine prepared in perchloric acid 2 M (0.5, 1, 2.5, 5, 7.5, 10, 15, 20 μg/ml, final concentration). The incubation was stopped by adding 200 μl of 2 M molar perchloric acid, and the mixture was centrifuged at 9000 g for 5 min. The supernatant fluid (800 μL) was transferred to a column (SPE cartridge ISOLUTE SCX-3, 100 mg) and centrifuged at 150 g for 2 min. The column was washed two more times with 0.5 ml of ultrapure water by centrifuging at 150 g for 2 min. The adsorbed octopamine was eluted twice with 0.3 ml of 4 M ammonium hydroxide by centrifuging at 150 g for 2 min. Octopamine in the eluate was then converted to p-hydroxybenzaldehyde by adding 200 μl of sodium periodate (2%) and incubating for 6 min. Excess periodate was than reduced by adding 200 μl of sodium metabisulfite (10%). Absorbance was measured at […] in a 96-well plate by use of a SpectraMAX plus 384 (Molecular Devices) with software SOFTmax® PRO Software 5.3 spectrophotometer. Absorbance was linear with octopamine concentration from 0.5 to 20 μg/ml. Dopamine beta hydroxylase activity is determined as nmol of octopamine formed/ml of plasma/hour and effect of compounds is presented as % control.
Results are reported in the table below as activity in % of control at the inhibitor concentration tested.

SMILES strings stand for the structures.

Regarding `NC(=O)C1CCN(C(=O)Cc2[nH]c(=S)n3c2C[C@H](c2c(F)c(F)cc(F)c2F)C3)CC1` [Example 86, (R)-1-(2-(6-(2,3,5,6-tetrafluorophenyl)-3-thioxo-2,5,6,7-tetrahydro-3H-pyrrolo[1,2-c]imidazol-1-yl)acetyl)piperidine-4-carboxamide], the “Plasma (0.1 μM), activity in % of control” value was 70.9 % of control and the “Plasma (1 μM), activity in % of control” value was 14.7 % of control.

As to `CN(Cc1cnn(C)c1)C(=O)Cc1c2n(c(=S)n1C)C[C@H](c1c(F)ccc(Cl)c1F)C2` [Example 430, (S)-2-(6-(3-chloro-2,6-difluorophenyl)-2-methyl-3-thioxo-2,5,6,7-tetrahydro-3H-pyrrolo[1,2-c]imidazol-1-yl)-N-methyl-N-((1-methyl-1H-pyrazol-4-yl)methyl)acetamide], the “Plasma (0.01 μM), activity in % of control” value was 25.3 % of control and the “Plasma (0.1 μM), activity in % of control” value was 2.2 % of control.

`O=C(Cc1[nH]c(=S)n2c1C[C@H](c1c(F)ccc(Br)c1F)C2)N[C@H]1CCC[C@@H]1O` [Example 161, 2-((R)-6-(3-bromo-2,6-difluorophenyl)-3-thioxo-2,5,6,7-tetrahydro-3H-pyrrolo[1,2-c]imidazol-1-yl)-N-((1S,2S)-2-hydroxycyclopentyl)acetamide]: the “Plasma (0.01 μM), activity in % of control” value is recorded as 85.0 % of control and the “Plasma (0.1 μM), activity in % of control” value is on record as 46.0 % of control.

With `Cn1c(CCN2CCCC2)c2n(c1=S)C[C@@H](c1c(F)ccc(F)c1F)C2` [Example 474, (R)-2-methyl-1-(2-(pyrrolidin-1-yl)ethyl)-6-(2,3,6-trifluorophenyl)-2,5,6,7-tetrahydro-3H-pyrrolo[1,2-c]imidazole-3-thione hydrofluoride], the “Plasma (0.01 μM), activity in % of control” value is 92.5 % of control and the “Plasma (0.1 μM), activity in % of control” value is on record as 79.3 % of control.

For `O=C(Cc1[nH]c(=S)n2c1C[C@@H](c1c(F)ccc(Cl)c1F)C2)NC1CCS(=O)(=O)CC1` [Example 112, (S)-2-(6-(3-chloro-2,6-difluorophenyl)-3-thioxo-2,5,6,7-tetrahydro-3H-pyrrolo[1,2-c]imidazol-1-yl)-N-(1,1-dioxidotetrahydro-2H-thiopyran-4-yl)acetamide], the “Plasma (0.01 μM), activity in % of control” value is 9.9 % of control and the “Plasma (0.1 μM), activity in % of control” value is given as 0 % of control.

As to `Cn1c(CC(=O)N[C@H]2CCOC2)c2n(c1=S)C[C@@H](c1c(F)ccc(F)c1F)C2` [Example 289, 2-((R)-2-methyl-3-thioxo-6-(2,3,6-trifluorophenyl)-2,5,6,7-tetrahydro-3H-pyrrolo[1,2-c]imidazol-1-yl)-N—((S)-tetrahydrofuran-3-yl)acetamide], the “Plasma (0.01 μM), activity in % of control” value is 87.1 % of control and the “Plasma (0.1 μM), activity in % of control” value is reported as 58.3 % of control.

Take `CN(CCc1[nH]c(=S)n2c1C[C@@H](c1c(F)ccc(Cl)c1F)C2)C(=O)N1CCCC1` [Example 227, (S)—N-(2-(6-(3-chloro-2,6-difluorophenyl)-3-thioxo-2,5,6,7-tetrahydro-3H-pyrrolo[1,2-c]imidazol-1-yl)ethyl)-N-methylpyrrolidine-1-carboxamide]: the “Plasma (0.01 μM), activity in % of control” value is reported as 86.8 % of control and the “Plasma (0.1 μM), activity in % of control” value was 54.9 % of control.

Consider `O=C(Cc1[nH]c(=S)n2c1C[C@H](c1c(F)ccc(Br)c1F)C2)N1CCC(F)(F)CC1` [Example 117, (R)-2-(6-(3-bromo-2,6-difluorophenyl)-3-thioxo-2,5,6,7-tetrahydro-3H-pyrrolo[1,2-c]imidazol-1-yl)-1-(4,4-difluoropiperidin-1-yl)ethan-1-one], for which the “Plasma (0.01 μM), activity in % of control” value is reported as 74.5 % of control and the “Plasma (0.1 μM), activity in % of control” value is listed as 43.0 % of control.

On to `O=C(Cc1[nH]c(=S)n2c1C[C@H](c1c(F)c(F)cc(F)c1F)C2)NC1CC1` [Example 78, (R)—N-cyclopropyl-2-(6-(2,3,5,6-tetrafluorophenyl)-3-thioxo-2,5,6,7-tetrahydro-3H-pyrrolo[1,2-c]imidazol-1-yl)acetamide], for which the “Plasma (0.1 μM), activity in % of control” value was 77.3 % of control and the “Plasma (1 μM), activity in % of control” value is given as 24.4 % of control.

Regarding `Cn1c(CC(=O)N[C@@H]2CCCOC2)c2n(c1=S)C[C@@H](c1c(F)c(F)cc(F)c1F)C2` [Example 278, 2-((R)-2-methyl-6-(2,3,5,6-tetrafluorophenyl)-3-thioxo-2,5,6,7-tetrahydro-3H-pyrrolo[1,2-c]imidazol-1-yl)-N—((R)-tetrahydro-2H-pyran-3-yl)acetamide], the “Plasma (0.01 μM), activity in % of control” value was 84.2 % of control and the “Plasma (0.1 μM), activity in % of control” value is listed as 62.0 % of control.

For `N#CCNC(=O)Cc1[nH]c(=S)n2c1C[C@H](c1c(F)c(F)cc(F)c1F)C2` [Example 27, (R)—N-(cyanomethyl)-2-(6-(2,3,5,6-tetrafluorophenyl)-3-thioxo-2,5,6,7-tetrahydro-3H-pyrrolo[1,2-c]imidazol-1-yl)acetamide], the “Plasma (0.1 μM), activity in % of control” value was 51.6 % of control and the “Plasma (1 μM), activity in % of control” value is reported as 7.6 % of control.

For `CN(C(=O)Cc1c2n(c(=S)n1C)C[C@@H](c1c(F)ccc(F)c1F)C2)[C@@H]1CCOC1` [Example 455, N-methyl-2-((R)-2-methyl-3-thioxo-6-(2,3,6-trifluorophenyl)-2,5,6,7-tetrahydro-3H-pyrrolo[1,2-c]imidazol-1-yl)-N—((R)-tetrahydrofuran-3-yl)acetamide], the “Plasma (0.01 μM), activity in % of control” value is listed as 131.0 % of control and the “Plasma (0.1 μM), activity in % of control” value is reported as 50.2 % of control.

In the case of `Cn1c(CC(=O)N2CCOCC2)c2n(c1=S)C[C@@]1(c3cc(Cl)ccc3F)C[C@@H]21` [Example 422, 2-((5aS,6aR)-5a-(5-chloro-2-fluorophenyl)-2-methyl-3-thioxo-2,3,5,5a,6,6a-hexahydrocyclopropa[3,4]pyrrolo[1,2-c]imidazol-1-yl)-1-morpholinoethan-1-one], the “Plasma (0.01 μM), activity in % of control” value is 68.1 % of control and the “Plasma (0.1 μM), activity in % of control” value is on record as 23.2 % of control.

Take `CN(C)CCCNC(=O)Cc1[nH]c(=S)n2c1[C@@H]1C[C@]1(c1cc(Br)ccc1F)C2.Cl` [Example 146, 2-((5aS,6aR)-5a-(5-bromo-2-fluorophenyl)-3-thioxo-2,3,5,5a,6,6a-hexahydrocyclopropa[3,4]pyrrolo[1,2-c]imidazol-1-yl)-N-(3-(dimethylamino)propyl)acetamide hydrochloride]: the “Plasma (0.1 μM), activity in % of control” value was 13.8 % of control and the “Plasma (1 μM), activity in % of control” value is 0.9 % of control.
